Data from patent publication US20240342330A1, “METHOD FOR THE PREPARATION OF SURFACES, PARTICULARLY OF CARDIAC PROSTHESIS” (BIOCOMPATIBILITY INNOVATION S.R.L., priority 2021, published 2024).

How the values were obtained:
Assay in all cases: Bactericidal activity suspension assay
Format in all cases: cell-based
Settings in all cases: 24 hours incubation
[1] = system: Listeria monocytogenes ATCC 19111
[2] = system: Salmonella enterica typhimurium ATCC 14028
[3] = system: Mycobacterium chelonae ATCC 35752
[4] = system: Aspergillus brasiliensis ATCC 16404
[5] = system: Streptococcus viridans ATCC 6249
[6] = system: Pseudomonas aeruginosa ATCC 9027
[7] = system: Staphylococcus aureus ATCC 6538
[8] = system: Candida albicans ATCC 10231
[9] = system: Enterococcus faecalis ATCC 29212

## CCO [ETHANOL, ethanol]
[1]
  BACTERICIDAL ACTIVITY %: 0%
[2]
  BACTERICIDAL ACTIVITY %: 90%
[3]
  BACTERICIDAL ACTIVITY %: 99%
[4]
  BACTERICIDAL ACTIVITY %: 90%
[5]
  BACTERICIDAL ACTIVITY %: 90%
[6]
  BACTERICIDAL ACTIVITY %: 99.99%
[7]
  BACTERICIDAL ACTIVITY %: 99%
[8]
  BACTERICIDAL ACTIVITY %: 99.9%
[9]
  BACTERICIDAL ACTIVITY %: 0%
